What all share (assay): Post-emergence efficacy, Method A
Assay type in all cases: in vivo

Assay [1] has as its system Digitaria sanguinalis (DIGSA). Conditions: Application rate 500 g/Ha, evaluated after 13 days, 100=total damage to plant, 0=no damage to plant; for pest or weed control at 500 g/ha: Digitaria sanguinalis, post-emergence, 312 h, read-out: Control of weed species after post-emergence application, DIGSA. Summed up: (§1)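 Plants raised 14 days from seed in standard soil in a glasshouse (24/16 °C day/night, 14 h light, 65% humidity) were sprayed with compound dissolved in acetone plus IF50 solvent/emulsifier (50 g/l solution), diluted with 0.25% or 1% Empicol ESC70 + 1% ammonium sulphate. Damage was scored visually after 13 days (0 = none, 100 = total).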

Assay [2] concerns Chenopodium album (CHEAL). The note with it: Application rate 500 g/Ha, evaluated after 13 days, 100=total damage to plant, 0=no damage to plant; for pest or weed control at 500 g/ha: Chenopodium album, post-emergence, 312 h, read-out: Control of weed species after post-emergence application, CHEAL. Summed up:
as §1

In assay [3] the test system is Euphorbia heterophylla (EPHHL). The note with it: Application rate 500 g/Ha, evaluated after 13 days, 100=total damage to plant, 0=no damage to plant; for pest or weed control at 500 g/ha: Euphorbia heterophylla, post-emergence, 312 h, read-out: Control of weed species after post-emergence application, EPHHL. The gist of the method:
as §1

Assay [4] relates to Ipomoea hederacea (IPOHE). Conditions: Application rate 500 g/Ha, evaluated after 13 days, 100=total damage to plant, 0=no damage to plant; for pest or weed control at 500 g/ha: Ipomoea hederacea, post-emergence, 312 h, read-out: Control of weed species after post-emergence application, IPOHE. Summed up:
as §1

The test system of the next assay is Eleusine indica (ELEIN). The note with it: Application rate 500 g/Ha, evaluated after 13 days, 100=total damage to plant, 0=no damage to plant; for pest or weed control at 500 g/ha: Eleusine indica, post-emergence, 312 h, read-out: Control of weed species after post-emergence application, ELEIN. The gist of the method:
as §1

A further assay relates to Setaria faberi (SETFA). The note with it: Application rate 500 g/Ha, evaluated after 13 days, 100=total damage to plant, 0=no damage to plant; for pest or weed control at 500 g/ha: Setaria faberi, post-emergence, 312 h, read-out: Control of weed species after post-emergence application, SETFA. The gist of the method:
as §1

A further assay deals with Lolium perenne (LOLPE). Conditions: Application rate 500 g/Ha, evaluated after 13 days, 100=total damage to plant, 0=no damage to plant; for pest or weed control at 500 g/ha: Lolium perenne, post-emergence, 312 h, read-out: Control of weed species after post-emergence application, LOLPE. The gist of the method:
as §1

The subject of assay [5] is Amaranthus palmeri (AMAPA). Conditions: Application rate 500 g/Ha, evaluated after 13 days, 100=total damage to plant, 0=no damage to plant; for pest or weed control at 500 g/ha: Amaranthus palmeri, post-emergence, 312 h, read-out: Control of weed species after post-emergence application, AMAPA. Summed up: as §1
Assay [6] relates to Echinochloa crus-galli (ECHCG). Conditions: Application rate 500 g/Ha, evaluated after 13 days, 100=total damage to plant, 0=no damage to plant; for pest or weed control at 500 g/ha: Echinochloa crus-galli, post-emergence, 312 h, read-out: Control of weed species after post-emergence application, ECHCG. The gist of the method: as §1

Data on 13 compounds can be found in patent US20220125051A1, “PRE-HARVEST DESICCATION METHOD” (SYNGENTA CROP PROTECTION AG, priority 2019, published 2022).

Regarding `O=S(=O)([O-])CC[n+]1ccc(-c2ncc(F)cn2)cn1` [Compound A19], the pest or weed control at 500 g/ha in assay [1] amounted to 50%; in [2] it was 60%; in assay [3] it was 60%; in assay [4] it was 40%; with Eleusine indica (ELEIN), 60%; in the assay on Setaria faberi (SETFA) it was 60%. For the same compound, the pest or weed control at 500 g/ha in the assay on Lolium perenne (LOLPE) came out at 20%; in assay [5] it was 100%; in [6] it was 40%.
On to `Cc1ccnc(-c2cc[n+](CCS(=O)(=O)[O-])nc2)n1` [Compound A21], for which the pest or weed control at 500 g/ha stood at 90% in [1]; 80% in assay [2]; 80% in assay [3]; 40% in assay [4]; 100% with Eleusine indica (ELEIN); 90% in the assay on Setaria faberi (SETFA). Also, the pest or weed control at 500 g/ha in the assay on Lolium perenne (LOLPE) came out at 80%; in assay [5] it was 100%; in [6] it was 60%.
`O=S(=O)([O-])CC[n+]1ccc(-c2ncc(C(F)(F)F)cn2)cn1` [Compound A24]: the pest or weed control at 500 g/ha in assay [1] came to 40%; in assay [2] it was 70%; in assay [3], 80%; in assay [4] it was 70%; in the assay with Eleusine indica (ELEIN) it was 40%; in the assay on Setaria faberi (SETFA), 70%. Moreover, the pest or weed control at 500 g/ha was 60% in the assay with Lolium perenne (LOLPE), 90% in assay [5] and 60% in assay [6].
As for `N#Cc1cnc(-c2cc[n+](CCS(=O)(=O)O)nc2)nc1` [Compound A25], in assay [1], the “Control of weed species after post-emergence application, DIGSA” value is 50. The “Control of weed species after post-emergence application, CHEAL” value in assay [2] is given as 60. The “Control of weed species after post-emergence application, EPHHL” value in assay [3] is 40. The “Control of weed species after post-emergence application, IPOHE” value in assay [4] was found to be 50. The “Control of weed species after post-emergence application, ELEIN” value in the assay on Eleusine indica (ELEIN) worked out at 50. For the same compound, the “Control of weed species after post-emergence application, SETFA” value in the assay on Setaria faberi (SETFA) is recorded as 60. For the same compound, the “Control of weed species after post-emergence application, LOLPE” value in the assay on Lolium perenne (LOLPE) worked out at 40. In addition, the “Control of weed species after post-emergence application, AMAPA” value in [5] came out at 100. For the same compound, the “Control of weed species after post-emergence application, ECHCG” value in assay [6] was 70.
As to `Cc1nccc(-c2cc[n+](CCS(=O)(=O)[O-])nc2)n1` [Compound A31], the pest or weed control at 500 g/ha came out at 90% in assay [1]; 100% in [2]; 50% in [3]; 100% in [4]; 80% with Eleusine indica (ELEIN); 50% in the assay on Setaria faberi (SETFA). The pest or weed control at 500 g/ha in the assay on Lolium perenne (LOLPE) worked out at 60%; in [5], 100%; in assay [6], 60%.
As to `COC(=O)c1cnc(-c2cc[n+](CCS(=O)(=O)[O-])nc2)nc1` [Compound A33], the pest or weed control at 500 g/ha in assay [1] turned out to be 60%; in [2], 80%; in [3], 60%; in [4] it was 40%; in the assay on Eleusine indica (ELEIN), 80%; in the assay on Setaria faberi (SETFA), 60%. Besides, the pest or weed control at 500 g/ha in the assay with Lolium perenne (LOLPE) is 50%; in assay [5], 100%; in assay [6], 40%.
Turning to `O=S(=O)([O-])CC[n+]1ccc(-c2ncc(C3CC3)cn2)cn1` [Compound A34], the pest or weed control at 500 g/ha in assay [1] amounted to 60%; in assay [2], 70%; in assay [3], 70%; in assay [4], 70%; in the assay on Eleusine indica (ELEIN), 90%; in the assay with Setaria faberi (SETFA) it was 70%. Besides, the pest or weed control at 500 g/ha in the assay with Lolium perenne (LOLPE) amounted to 60%; in [5], 100%; in assay [6] it was 30%.
In the case of `Cc1cnc(-c2cc[n+](CCC(=O)O)nc2)nc1` [Compound A36], the pest or weed control at 500 g/ha in assay [1] worked out at 90%; in [2], 90%; in [3], 90%; in assay [4], 30%; with Eleusine indica (ELEIN) it was 100%; in the assay on Setaria faberi (SETFA), 100%. In addition, the values for the pest or weed control at 500 g/ha (in the assay with Lolium perenne (LOLPE); in assay [5]; in [6]) were 80%, 100% and 90%, respectively.
Turning to `COc1cnc(-c2cc[n+](CCC(=O)[O-])nc2)nc1` [Compound A38], the pest or weed control at 500 g/ha in assay [1] turned out to be 100%; in assay [2] it was 50%; in [3], 30%; in assay [4], 20%; with Eleusine indica (ELEIN) it was 70%; in the assay on Setaria faberi (SETFA) it was 70%. The pest or weed control at 500 g/ha in the assay on Lolium perenne (LOLPE) came to 40%; in [5] it was 100%; in [6], 30%.
Turning to `O=C([O-])CC[n+]1ccc(-c2nccc(C(F)(F)F)n2)cn1` [Compound A39], the pest or weed control at 500 g/ha was 70% in [1]; 90% in assay [2]; 90% in assay [3]; 0% in assay [4]; 80% in the assay with Eleusine indica (ELEIN); 40% in the assay with Setaria faberi (SETFA). Also, the results for the pest or weed control at 500 g/ha (with Lolium perenne (LOLPE); in assay [5]; in [6]) were 60%, 100% and 30%, respectively.
`CC(CC(=O)O)[n+]1ccc(-c2ncccn2)cn1` (stereo not drawn) [Compound A40, 3-(4-pyrimidin-2-ylpyridazin-1-ium-1-yl)butanoic acid 2,2,2-trifluoroacetate]: the pest or weed control at 500 g/ha in assay [1] came to 90%; in assay [2] it was 70%; in assay [3] it was 90%; in assay [4], 100%; in the assay on Eleusine indica (ELEIN), 90%; with Setaria faberi (SETFA) it was 100%. The pest or weed control at 500 g/ha (in the assay on Lolium perenne (LOLPE); in assay [5]; in assay [6]) was 90% in each case.
On to `CN(C)c1cnc(-c2cc[n+](CCC(=O)[O-])nc2)nc1` [Compound A42], for which the pest or weed control at 500 g/ha in [1] was 50%; in assay [2], 0%; in assay [3] it was 30%; in [4] it was 20%; in the assay with Eleusine indica (ELEIN) it was 20%; in the assay with Setaria faberi (SETFA) it was 50%. Also, the pest or weed control at 500 g/ha in the assay on Lolium perenne (LOLPE) turned out to be 0%; in assay [5], 50%; in assay [6], 30%.
Consider `Nc1cnc(-c2cc[n+](CCC(=O)[O-])nc2)nc1` [Compound A44], for which the pest or weed control at 500 g/ha was 40% in assay [1]; 10% in assay [2]; 20% in assay [3]; 20% in [4]; 20% in the assay on Eleusine indica (ELEIN); 60% in the assay with Setaria faberi (SETFA). The pest or weed control at 500 g/ha with Lolium perenne (LOLPE) is 20%; in [5], 40%; in assay [6], 30%.
